“Also recorded” adds a separate entry of the source. Like-named read-outs stand apart in the source and are kept apart here.
What was measured:
AR = conditions: cited from earlier work
hAR = target: T1, hAR (Homo sapiens, UniProt P10275); assay: lacZ-based; format: cell-based
T1 sequence (P10275 1-920): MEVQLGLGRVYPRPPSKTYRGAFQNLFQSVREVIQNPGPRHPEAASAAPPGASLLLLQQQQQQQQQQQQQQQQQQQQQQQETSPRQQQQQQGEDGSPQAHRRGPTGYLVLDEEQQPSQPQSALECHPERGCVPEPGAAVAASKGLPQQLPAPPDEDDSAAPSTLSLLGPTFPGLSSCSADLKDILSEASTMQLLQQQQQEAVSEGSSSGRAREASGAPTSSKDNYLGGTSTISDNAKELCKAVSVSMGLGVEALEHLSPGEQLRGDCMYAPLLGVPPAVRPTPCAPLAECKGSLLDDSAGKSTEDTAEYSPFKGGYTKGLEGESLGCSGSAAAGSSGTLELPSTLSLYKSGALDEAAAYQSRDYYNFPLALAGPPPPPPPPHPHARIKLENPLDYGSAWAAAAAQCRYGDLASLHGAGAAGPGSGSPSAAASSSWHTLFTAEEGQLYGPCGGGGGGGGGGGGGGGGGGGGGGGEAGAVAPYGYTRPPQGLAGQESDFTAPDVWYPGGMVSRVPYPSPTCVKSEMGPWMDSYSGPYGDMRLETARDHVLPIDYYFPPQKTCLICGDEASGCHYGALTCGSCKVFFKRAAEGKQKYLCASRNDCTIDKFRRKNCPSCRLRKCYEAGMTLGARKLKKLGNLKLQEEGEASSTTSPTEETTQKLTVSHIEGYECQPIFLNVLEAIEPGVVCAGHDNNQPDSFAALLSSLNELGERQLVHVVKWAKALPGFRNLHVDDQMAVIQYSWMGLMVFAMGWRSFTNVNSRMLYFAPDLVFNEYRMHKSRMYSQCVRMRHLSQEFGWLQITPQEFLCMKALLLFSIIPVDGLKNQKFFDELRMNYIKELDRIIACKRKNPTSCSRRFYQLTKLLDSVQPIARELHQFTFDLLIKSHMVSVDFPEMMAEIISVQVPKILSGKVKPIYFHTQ

human androgen receptor [1] = target: T2, human androgen receptor (Homo sapiens, UniProt P10275); assay: new yeast androgen bioassay expressing yEGFP in response to androgens; format: cell-based
T2 sequence (P10275 1-920): T1 sequence (P10275 1-920)

human androgen receptor [2] = target: T2, human androgen receptor; format: cell-based; conditions: coexposure with 50 nM 5α-dihydrotestosterone; potency compared with flutamide
[3] = β-galactosidase bioassay, relative to 17β-testosterone, NR no response

| SMILES | androgenic activity in MCRG systems (positive systems out of all) (AR) | RAP (hAR; [3]) | further results |
| --- | --- | --- | --- |
| C[C@]12CC[C@@H]3c4ccc(O)cc4CC[C@H]3[C@@H]1CC[C@@H]2O [17β-Estradiol] | ten out of 11 | – | – |
| C[C@@H]1C[C@H]2[C@@H]3CCC4=CC(=O)C=C[C@]4(C)[C@@]3(F)[C@@H](O)C[C@]2(C)[C@@]1(O)C(=O)CO [Dexamethasone] | three out of four | – | – |
| C[C@]12CC[C@H]3[C@@H](CCC4=CC(=O)C=C[C@@]43C)[C@@H]1CC[C@@H]2O [17β-Boldenone] | – | 0.2 | – |
| C[C@]12CC[C@@H]3c4ccc(O)cc4CC[C@H]3[C@@H]1CCC2=O [Estrone] | – | – | agonistic response (in words) (human androgen receptor [1]): no agonistic response; also recorded: negative result |
| CC(=O)[C@H]1CC[C@H]2[C@@H]3CCC4=CC(=O)CC[C@]4(C)[C@H]3CC[C@]12C [Progesterone] | seven out of nine | – | – |
| C[C@]1(O)CC[C@H]2[C@@H]3CCC4=CC(=O)CCC4=C3C=C[C@@]21C [Methyltrienolone] | – | – | RAP (hAR): 3.1 |
| CC[C@]1(O)CC[C@H]2[C@@H]3CCC4=CC(=O)CCC4=C3C=C[C@@]21CC [Tetrahydrogestrinone] | – | 1.0 | – |
| C[C@]12C=CC3=C4CCC(=O)C=C4CC[C@H]3[C@@H]1CC[C@@H]2O [17β-Trenbolone] | – | 0.9 | EC50 (hAR): 0.013 µM |
| Brc1ccc(Oc2cc(Br)cc(Br)c2)cc1 [BDE-39] | – | – | agonistic response (in words) (human androgen receptor [1]): None of these four compounds were able to show an agonistic response; antiandrogenic activity (in words) (human androgen receptor [2]): clearly less antiandrogenic |
